Laboratory results from EP3064205A1, “Therapeutic use of isomeric forms of 2-(4-chlorophenyl)quinolin-4-yl)(piperidin-2-yl)methanol” (Glionova AB, priority 2015, dated 2016).
pIC50: −log10 of the molar value. Like-named read-outs stand apart in the source and are kept apart here.

Assays:
Experiment in all cases: 3D clonogenic assay (PDX)
Format in all cases: cell-based, human
[1] = system: LXFL 1072; conditions: LXFL 1072, Lung Large Cell; for pIC50: Homo sapiens
How it was run: (§1)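 Colony counts from automated image analysis of INT-stained soft-agar cultures served as the read-out. Cells were dissociated from subcutaneous PDX tumors and layered in agar. Compound was applied 24 h later at 10 concentrations (top 50 µM) and left on the cells for 8–13 days.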

[2] = system: RXF 1781; conditions: RXF 1781, Renal; for pIC50: Homo sapiens
How it was run: as §1

[3] = system: OVXF 1353; conditions: OVXF 1353, Ovarian; for pIC50: Homo sapiens
How it was run: as §1

[4] = system: HNXF 536; conditions: HNXF 536, Head and Neck; for pIC50: Homo sapiens
How it was run: as §1

[5] = system: MAXF 1322; conditions: MAXF 1322, Breast; for pIC50: Homo sapiens
How it was run: as §1

[6] = system: GXA 3044; conditions: GXA 3044, Asian Gastric; for pIC50: Homo sapiens
How it was run: as §1

[7] = system: SXFS 1937; conditions: SXFS 1937, Sarcoma Soft Tissue; for pIC50: Homo sapiens
How it was run: as §1

[8] = system: PAXF 2033; conditions: PAXF 2033, Pancreas; for pIC50: Homo sapiens
How it was run: as §1

[9] = system: PXF 537; conditions: PXF 537, Pleuramesothelioma; for pIC50: Homo sapiens
How it was run: as §1

[10] = system: LXFA 526; conditions: LXFA 526, Lung Adeno; for pIC50: Homo sapiens
How it was run: as §1

[11] = system: LXFA 1041; conditions: LXFA 1041, Lung Adeno; for pIC50: Homo sapiens
How it was run: as §1

[12] = system: BXF 439; conditions: BXF 439, Bladder; for pIC50: Homo sapiens
How it was run: as §1

pIC50 ([1]; read-out: abs. IC50): 5.12
pIC50 ([1]; read-out: rel. IC50): 5.12
pIC50 ([2]; read-out: abs. IC50): 4.95
pIC50 ([2]; read-out: rel. IC50): 4.96
pIC50 ([3]; read-out: abs. IC50): 5.31
pIC50 ([3]; read-out: rel. IC50): 5.33
pIC50 ([4]; read-out: abs. IC50): 5.09
pIC50 ([4]; read-out: rel. IC50): 5.13
pIC50 ([5]; read-out: abs. IC50): 5.32
pIC50 ([5]; read-out: rel. IC50): 5.42
pIC50 ([6]; read-out: abs. IC50): 5.04
pIC50 ([6]; read-out: rel. IC50): 5.05
pIC50 ([7]; read-out: abs. IC50): 5.00
pIC50 ([7]; read-out: rel. IC50): 5.00
pIC50 ([8]; read-out: abs. IC50): 5.04
pIC50 ([8]; read-out: rel. IC50): 5.05
pIC50 ([9]; read-out: abs. IC50): 5.06
pIC50 ([9]; read-out: rel. IC50): 5.06
pIC50 ([10]; read-out: abs. IC50): 5.49
pIC50 ([10]; read-out: rel. IC50): 5.54
pIC50 ([11]; read-out: abs. IC50): 5.28
pIC50 ([11]; read-out: rel. IC50): 5.28
pIC50 ([12]; read-out: abs. IC50): 4.85
pIC50 ([12]; read-out: rel. IC50): 4.89
Structure (SMILES): O[C@H](c1cc(-c2ccc(Cl)cc2)nc2ccccc12)[C@@H]1CCCCN1 [S1, (R)-(2-(4-chlorophenyl)quinolin-4-yl)((S)-piperidin-2-yl)methanol]
b (bottom plateau of concentration-effect curve) [1]: 0
t (top plateau of concentration-effect curve) [1]: 101
b (bottom plateau of concentration-effect curve) [2]: 8
t (top plateau of concentration-effect curve) [2]: 112
b (bottom plateau of concentration-effect curve) [3]: 23
t (top plateau of concentration-effect curve) [3]: 101
b (bottom plateau of concentration-effect curve) [4]: 14
t (top plateau of concentration-effect curve) [4]: 99
b (bottom plateau of concentration-effect curve) [5]: 21
t (top plateau of concentration-effect curve) [5]: 93
b (bottom plateau of concentration-effect curve) [6]: 15
t (top plateau of concentration-effect curve) [6]: 101
b (bottom plateau of concentration-effect curve) [7]: 18
t (top plateau of concentration-effect curve) [7]: 120
b (bottom plateau of concentration-effect curve) [8]: 27
t (top plateau of concentration-effect curve) [8]: 110
b (bottom plateau of concentration-effect curve) [9]: 24
t (top plateau of concentration-effect curve) [9]: 80
b (bottom plateau of concentration-effect curve) [10]: 10
t (top plateau of concentration-effect curve) [10]: 96
b (bottom plateau of concentration-effect curve) [11]: 10
t (top plateau of concentration-effect curve) [11]: 95
b (bottom plateau of concentration-effect curve) [12]: 34
t (top plateau of concentration-effect curve) [12]: 95
